One experiment deals with T1, human orexin-1 receptor (Homo sapiens, UniProt O43613).
T1 construct: expressed in transfected cells; host or cells: CHO cells (G418 selection)
T1 sequence (O43613 1-425): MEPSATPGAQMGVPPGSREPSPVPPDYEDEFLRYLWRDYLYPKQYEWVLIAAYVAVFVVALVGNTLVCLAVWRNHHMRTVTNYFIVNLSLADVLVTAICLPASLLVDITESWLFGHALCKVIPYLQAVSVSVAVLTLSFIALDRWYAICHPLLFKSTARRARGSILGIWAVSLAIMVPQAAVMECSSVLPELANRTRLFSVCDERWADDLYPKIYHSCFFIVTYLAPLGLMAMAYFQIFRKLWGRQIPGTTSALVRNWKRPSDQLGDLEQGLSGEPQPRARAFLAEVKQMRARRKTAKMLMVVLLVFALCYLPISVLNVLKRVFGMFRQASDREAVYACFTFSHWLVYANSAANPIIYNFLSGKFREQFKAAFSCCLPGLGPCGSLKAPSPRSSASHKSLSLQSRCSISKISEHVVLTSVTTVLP
As to the kind of experiment: Intracellular calcium (FLIPR) antagonist assay, CHO cells expressing human orexin-1 receptor, 3 nM orexin-A. The conditions noted are these: 1 uM compound, orexin-A 3 nM; for inhibition at 1 µM: CHO, read-out: OXIR % Inh. @ 1 uM. Format: cell-based. On the technique in general: A change in cytosolic calcium serves as a functional read-out for many receptors and channels.

The next experiment has as its target T2, human orexin-2 receptor (Homo sapiens, UniProt O43614).
T2 construct: expressed in transfected cells; host or cells: CHO cells (G418 selection)
T2 sequence (O43614 1-444): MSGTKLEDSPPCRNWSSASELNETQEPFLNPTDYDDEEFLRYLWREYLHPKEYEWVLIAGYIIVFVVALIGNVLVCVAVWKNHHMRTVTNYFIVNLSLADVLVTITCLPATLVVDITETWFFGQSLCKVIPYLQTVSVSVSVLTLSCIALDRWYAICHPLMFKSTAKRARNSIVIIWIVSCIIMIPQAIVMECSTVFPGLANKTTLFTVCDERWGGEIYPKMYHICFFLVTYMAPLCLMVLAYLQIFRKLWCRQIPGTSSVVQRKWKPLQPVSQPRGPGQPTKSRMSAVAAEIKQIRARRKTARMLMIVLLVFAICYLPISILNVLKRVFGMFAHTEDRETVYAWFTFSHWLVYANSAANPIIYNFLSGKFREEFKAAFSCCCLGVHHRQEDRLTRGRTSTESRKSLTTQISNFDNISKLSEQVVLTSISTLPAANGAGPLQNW
As to the kind of experiment: Intracellular calcium (FLIPR) antagonist assay, CHO cells expressing human orexin-2 receptor, 3 nM orexin-A. Format: cell-based. The conditions noted are these: 1 uM compound, orexin-A 3 nM; for inhibition at 1 µM: CHO, read-out: OX2R % Inh. @ 1uM.

With `C[C@@H]1CCN(c2cnc(C(F)(F)F)cn2)CCN1C(=O)c1c(-c2ccccc2)nn2ccccc12` [Example 90], the figures for the inhibition at 1 µM on human orexin-1 receptor and at human orexin-2 receptor were 95% and 80%, respectively.
Consider `C[C@@H]1CN(c2cnc(C(F)(F)F)cn2)CCCN1C(=O)c1c(-c2ccccc2)nn2cccnc12` [Example 91], for which the inhibition at 1 µM at human orexin-1 receptor was 87%; on human orexin-2 receptor, 74%.
For `COc1ccc(N2CC[C@@H](C)N(C(=O)c3c(-c4ncccn4)nn4ccccc34)CC2)nc1` [Example 92], in that order: 25% and 13%.
In the case of `COc1ccc(N2CC[C@@H](C)N(C(=O)c3c(-c4ccccn4)nn4ccccc34)CC2)nc1` [Example 93], the “OXIR % Inh. @ 1 uM” value at human orexin-1 receptor worked out at 36%. Further, on human orexin-2 receptor, the “OX2R % Inh. @ 1uM” value is reported as 33%.
The corresponding values for `C[C@@H]1CCN(c2cnc(C(F)(F)F)cn2)CCN1C(=O)c1c(-c2ncccn2)nn2ccccc12` [Example 94] are 43% and 21%.
For the molecule `C[C@@H]1CCN(c2cnc(C(F)(F)F)cn2)CCN1C(=O)c1c(-c2ccccn2)nn2ccccc12` [Example 95], the “OXIR % Inh. @ 1 uM” value on human orexin-1 receptor was 86%. For the same molecule, at human orexin-2 receptor, the “OX2R % Inh. @ 1uM” value came to 61%.
For `C[C@@H]1CCN(c2nc3cc(Cl)ccc3o2)CCN1C(=O)c1nn2cccnc2c1-c1ccccn1` [Example 96], the inhibition at 1 µM at human orexin-1 receptor was found to be 100%; on human orexin-2 receptor it was 71%.
Turning to `C[C@@H]1CCN(c2ccc(C(F)(F)F)cn2)CCN1C(=O)c1nn2cccnc2c1-c1ccccn1` [Example 97], the figures for the inhibition at 1 µM on human orexin-1 receptor and on human orexin-2 receptor were 98% and 51%, respectively.
With `C[C@@H]1CCN(c2cnc(C(F)(F)F)cn2)CCN1C(=O)c1nn2cccnc2c1-c1ccccn1` [Example 98], the inhibition at 1 µM at human orexin-1 receptor worked out at 57%; at human orexin-2 receptor, 26%.
`Cc1cc(C)nc(N2CC[C@@H](C)N(C(=O)c3nn4cccnc4c3-c3ccccn3)CC2)n1` [Example 99]: the inhibition at 1 µM on human orexin-1 receptor came to 45%; on human orexin-2 receptor, 56%.
The corresponding values for `C[C@@H]1CCN(c2nc3cc(Cl)ccc3o2)CCN1C(=O)c1ccnn1-c1ccccc1` [Example 100] are 54% and 57%.
For `C[C@@H]1CCN(c2ccc(C(F)(F)F)cn2)CCN1C(=O)c1ccnn1-c1ccccc1` [Example 101], the inhibition at 1 µM on human orexin-1 receptor came out at 19%; at human orexin-2 receptor, 32%.

Source of the values: patent US20260256807A1, “SUBSTITUTED PYRAZOLES AND IMIDAZOLES AS OREXIN RECEPTOR ANTAGONISTS COMPOSITION, METHODS FOR TREATING NEUROLOGICAL AND PSYCHOLOGICAL DISORDERS” (HAGER BIOSCIENCES, LLC, priority 2022, published 2026).
